Reference: patent US8119640B2, “Hedgehog pathway antagonists methods of use” (The Board of Trustees of the Leland Stanford Junior …, priority 2008, dated 2012)

How the values were obtained:
FLAG-Gli2 = assay: Analysis of Gli2 processing and Shh-dependent Gli2 stabilization; format: cell-based, mouse; conditions: Shh-EGFP FLAG-Gli2 cells, absence and presence of Shh, 24 h
Protocol: Analysis of Gli2 processing and Shh-dependent Gli2 stabilization. […] Each compound incubation was also done in the absence and presence of 5% Shh-N-conditioned medium, and the cells were maintained under these conditions for 24 h. The cells were subsequently solubilized in lysis buffer (100 μL/well; 50 mM Tris-HCl, pH 7.4, 1% Triton X-100, 250 mM NaCl, 2 mM EDTA, 20 mM NaF, 2 mM Na3VO4, 2 mM 2-mercaptoethanol, EDTA-free protease inhibitor cocktail (Roche)). This suspension was transferred to a 1.5-mL centrifuge tube and incubated on ice for 30 min, with vortexing every 5 min. The cell lysates were then centrifuged at 20,000×g at 4° C. for 20 min. Supernatants were removed, and a BCA protein assay was performed to quantify protein levels. Mouse anti-FLAG M2 agarose slurry (20 μL, Sigma) was pelleted by centrifugation and incubated with 800 ng of protein from each condition for 90 min at 4° C. and then washed three times with 1 mL of wash buffer (75 mM Tris-HCl buffer, pH 8.0 containing 225 mM NaCl, 0.5% Triton X-100) and centrifuged at 2,300×g at 4° C. The agarose beads were suspended in 30 μL of 1×SDS-PAGE sample buffer (50 mM Tris-HCl, pH 6.8 containing 10% glycerol, 2% SDS, 50 mM DTT, 200 mM 2-mercaptoethanol, and 0.001% bromophenol blue), and the mixture was boiled for 5 min. The samples were then resolved on a 4-12% Bis-Tris Criterion XT gel and transferred to a PVDF membrane. The membrane was dehydrated with methanol, and then probed with rabbit anti-FLAG antibody (Sigma; 1:1,000 dilution in blocking buffer (PBS 21 containing 3% non-fat dried milk and 0.01% Tween 20)) for 90 min. […] Blots were washed 4×3 min in PBS, and the immunoreactive bands were detected with a SuperSignal West Dura kit and a ChemiDoc XRS system. Protein bands were quantified using Quantity One software (Bio-Rad). For each experiment, boxes of equal size were drawn around the FLAG-Gli2 and FLAG-Gli2R bands. Band intensities were then normalized to the average intensity for all bands in a given experiment. The results from all experiments were averaged and normalized relative to the basal level of FLAG-Gli2 (DMSO treatment without Shh-N-conditioned medium).

FLAG-Gli1 = assay: Analysis of Gli1 stability; format: cell-based, mouse; conditions: Shh-LIGHT2 FLAG-Gli1 cells, 24 h
Protocol: Analysis of Gli1 stability. […] The cells were maintained under these conditions for 24 h. The cells were subsequently solubilized in lysis buffer (100 μL/well; 50 mM Tris-HCl, pH 7.4, 1% Triton X-100, 250 mM NaCl, 2 mM EDTA, 20 mM NaF, 2 mM Na3VO4, 2 mM 2-mercaptoethanol, and EDTA-free protease inhibitor cocktail (Roche)). This suspension was transferred to a 1.5-mL centrifuge tube and incubated on ice for 30 min, with vortexing every 5 min. The cell lysates were then centrifuged at 20,000×g at 4° C. for 20 min. Supernatants were removed, and a BCA assay was performed to quantify protein levels. 15 μg […] of protein from each sample was solubilized in 1×SDS-PAGE sample buffer (50 mM Tris-HCl, pH 6.8 containing 10% glycerol, 2% SDS, 50 mM DTT, 200 mM 2-mercaptoethanol, and 0.001% bromophenol blue) and boiled for 5 min. The samples were then resolved on a 4-12% Bis-Tris Criterion XT gel and transferred to a PVDF membrane. The membrane was dehydrated with methanol, and then probed with mouse anti-FLAG M2 antibody (Sigma; 1:1,000 dilution in blocking buffer (PBS containing 3% non-fat dried milk and 0.01% Tween 20)) for 90 min. The blots were washed 4×5 min in PBS containing 0.01% Tween 20 and then probed with horseradish peroxidase-conjugated sheep anti-mouse IgG antibody (GE Healthcare; 1:10,000 dilution in blocking buffer) for 1 h. The membranes were washed again 4×3 min in PBS, and immunoreactive bands were detected with a SuperSignal West Dura kit and a ChemiDoc XRS system. To probe for loading controls, the blots were rinsed with PBS, incubated for 1 min in methanol, washed 3×5 min in PBS, and then re-blocked for 1 h in PBS containing 5% non-fat dried milk and 0.1% Tween 20. […] Protein bands were quantified using Quantity One software (Bio-Rad). FLAG-Gli1 and importin β1 bands were normalized to the average band intensities for each experiment. The ratio of these two values was then used to determine the relative amount of FLAG-Gli1 per condition. Results from three independent experiments were then averaged, and normalized to FLAG-Gli1 levels in DMSO-treated cells.

Compound	FLAG-Gli2 levels and processing (immunoblotting) (FLAG-Gli2)	FLAG-Gli1 stability/levels (immunoblotting) (FLAG-Gli1)
COCCOC(=O)C1=C(C)NC2=C(C(=O)CC(c3ccccc3OC)C2)C1c1cccc(O)c1 (mixture of isomers) [Compound 8, 4-(3-Hydroxy-phenyl)-7-(2-methoxy-phenyl)-2-methyl-5-oxo-1,4,5,6,7,8-hexahydro-quinoline-3-carboxylic acid 2-methoxy-ethyl ester]	slightly elevated levels of full-length and repressor forms of FLAG-Gli2 under basal conditions and greater FLAG-Gli2 processing upon Shh stimulation	increased
OCCNc1nc(N2CCN(c3ccccc3)CC2)nc2ccccc12 [Compound 11]	moderately increased total FLAG-Gli2 levels as well but did not alter proteolytic processing of the transcription factor	neither HPI-2 or HPI-3 had any significant effect on FLAG-Gli1 levels
COc1ccc(OC)c2c1cc1n2CC(C)(C(=O)NC2CCCCCCC2)N(CCN(C)C)C1=O (centres unmarked) [Compound 17]	moderately increased total FLAG-Gli2 levels as well but did not alter proteolytic processing of the transcription factor	neither HPI-2 or HPI-3 had any significant effect on FLAG-Gli1 levels
N#CC(C(=O)c1ccc(Cl)cc1Cl)=C1NC(=O)c2ccccc2N1 [Compound 18]	both decreased total FLAG-Gli2 levels and prevented Shh dependent stabilization of full-length FLAG-Gli2	decreased
